Laboratory results as given in ChEMBL document CHEMBL5291721, “A preclinical secondary pharmacology resource illuminates target-adverse drug reaction associations of marketed drugs” (Nat Commun, 2023).
Where a SMILES comes first, the peptide text is derived from it.

Assays:
[1] = target: 5-hydroxytryptamine receptor 2A (Homo sapiens, UniProt P28223); type: functional, cell-based
[2] = target: T1, Muscarinic acetylcholine receptor M2 (Homo sapiens, UniProt P08172); type: functional, cell-based
T1 sequence (P08172 whole entry): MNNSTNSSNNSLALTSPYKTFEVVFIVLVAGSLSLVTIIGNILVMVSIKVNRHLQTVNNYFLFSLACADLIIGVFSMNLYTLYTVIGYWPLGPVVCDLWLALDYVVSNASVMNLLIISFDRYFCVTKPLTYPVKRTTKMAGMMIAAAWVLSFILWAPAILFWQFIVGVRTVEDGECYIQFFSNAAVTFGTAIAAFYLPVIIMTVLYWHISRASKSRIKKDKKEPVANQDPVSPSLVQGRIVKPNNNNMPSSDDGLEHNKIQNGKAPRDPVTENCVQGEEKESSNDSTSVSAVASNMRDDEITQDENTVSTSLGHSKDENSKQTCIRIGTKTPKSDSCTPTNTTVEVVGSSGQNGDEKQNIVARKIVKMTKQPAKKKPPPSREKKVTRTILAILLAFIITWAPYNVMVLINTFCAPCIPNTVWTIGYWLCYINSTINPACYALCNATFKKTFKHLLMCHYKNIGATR

[3] = target: T2, Prostaglandin G/H synthase 1 (Rattus norvegicus, UniProt Q63921); type: functional
T2 sequence (Q63921 whole entry): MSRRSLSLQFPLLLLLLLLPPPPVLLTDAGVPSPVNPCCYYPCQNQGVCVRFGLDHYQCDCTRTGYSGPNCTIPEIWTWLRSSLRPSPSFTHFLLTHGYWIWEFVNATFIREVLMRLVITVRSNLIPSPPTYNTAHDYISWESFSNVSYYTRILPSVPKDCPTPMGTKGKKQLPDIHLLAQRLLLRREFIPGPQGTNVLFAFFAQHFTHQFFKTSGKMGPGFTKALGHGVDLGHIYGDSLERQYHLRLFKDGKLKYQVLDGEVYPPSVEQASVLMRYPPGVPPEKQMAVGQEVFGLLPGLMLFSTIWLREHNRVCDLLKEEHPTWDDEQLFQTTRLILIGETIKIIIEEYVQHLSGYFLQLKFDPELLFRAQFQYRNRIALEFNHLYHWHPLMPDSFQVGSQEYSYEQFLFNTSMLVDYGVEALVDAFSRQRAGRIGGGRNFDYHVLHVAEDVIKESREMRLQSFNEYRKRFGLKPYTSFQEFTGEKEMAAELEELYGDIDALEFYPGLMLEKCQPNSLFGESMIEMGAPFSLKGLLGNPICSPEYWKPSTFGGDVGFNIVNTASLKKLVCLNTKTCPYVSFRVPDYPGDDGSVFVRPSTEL

[4] = target: 5-hydroxytryptamine receptor 2B (Homo sapiens, UniProt P41595); type: functional, cell-based
[5] = target: T3, B2 bradykinin receptor (Homo sapiens, UniProt P30411)
T3 sequence (P30411 whole entry): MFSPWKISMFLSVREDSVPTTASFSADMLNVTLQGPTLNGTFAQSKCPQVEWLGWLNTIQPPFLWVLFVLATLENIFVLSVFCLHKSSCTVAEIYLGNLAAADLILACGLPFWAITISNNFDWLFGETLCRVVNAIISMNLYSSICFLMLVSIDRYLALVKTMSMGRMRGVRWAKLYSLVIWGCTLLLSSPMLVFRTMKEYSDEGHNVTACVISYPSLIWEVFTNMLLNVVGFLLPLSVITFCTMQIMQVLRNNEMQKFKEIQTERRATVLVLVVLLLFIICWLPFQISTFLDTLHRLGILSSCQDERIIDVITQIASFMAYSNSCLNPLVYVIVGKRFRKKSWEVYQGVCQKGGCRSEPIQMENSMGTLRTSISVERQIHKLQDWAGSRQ

[6] = target: T4, Alpha-2A adrenergic receptor (Homo sapiens, UniProt P08913); type: functional, cell-based
T4 sequence (P08913 whole entry): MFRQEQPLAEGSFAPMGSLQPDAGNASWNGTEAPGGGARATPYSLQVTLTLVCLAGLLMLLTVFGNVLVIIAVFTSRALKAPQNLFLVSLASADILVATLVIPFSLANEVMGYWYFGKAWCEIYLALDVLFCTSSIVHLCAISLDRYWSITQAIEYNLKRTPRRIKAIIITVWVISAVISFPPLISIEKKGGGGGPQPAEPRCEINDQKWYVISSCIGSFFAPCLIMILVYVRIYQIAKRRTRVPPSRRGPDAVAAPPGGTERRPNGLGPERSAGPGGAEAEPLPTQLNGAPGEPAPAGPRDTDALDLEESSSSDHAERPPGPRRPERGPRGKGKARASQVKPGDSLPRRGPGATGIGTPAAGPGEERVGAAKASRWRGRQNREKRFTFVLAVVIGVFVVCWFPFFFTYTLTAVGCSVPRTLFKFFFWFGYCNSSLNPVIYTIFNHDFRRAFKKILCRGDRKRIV

[7] = target: T5, 5-hydroxytryptamine receptor 2C (Homo sapiens, UniProt P28335)
T5 sequence (P28335 whole entry): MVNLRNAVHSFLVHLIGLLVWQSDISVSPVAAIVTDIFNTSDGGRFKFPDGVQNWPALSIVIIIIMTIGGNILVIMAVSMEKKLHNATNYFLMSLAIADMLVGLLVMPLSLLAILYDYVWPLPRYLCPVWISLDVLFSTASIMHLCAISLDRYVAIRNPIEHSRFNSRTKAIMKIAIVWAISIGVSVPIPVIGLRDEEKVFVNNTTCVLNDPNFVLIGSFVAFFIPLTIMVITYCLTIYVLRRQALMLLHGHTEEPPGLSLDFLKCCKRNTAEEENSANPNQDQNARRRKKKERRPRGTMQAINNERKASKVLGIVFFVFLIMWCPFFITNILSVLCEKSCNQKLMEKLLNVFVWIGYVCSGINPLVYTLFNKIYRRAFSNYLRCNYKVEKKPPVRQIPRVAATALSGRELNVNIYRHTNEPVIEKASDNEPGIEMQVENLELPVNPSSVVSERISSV

[8] = target: 3',5'-cyclic-AMP phosphodiesterase 4D (Homo sapiens, UniProt Q08499); type: functional
[9] = target: Kappa-type opioid receptor (Homo sapiens, UniProt P41145)
[10] = target: Melanocortin receptor 3 (Homo sapiens, UniProt P41968)
Note: assay procedure not described here.

Sequence of Kappa-type opioid receptor (P41145 whole entry): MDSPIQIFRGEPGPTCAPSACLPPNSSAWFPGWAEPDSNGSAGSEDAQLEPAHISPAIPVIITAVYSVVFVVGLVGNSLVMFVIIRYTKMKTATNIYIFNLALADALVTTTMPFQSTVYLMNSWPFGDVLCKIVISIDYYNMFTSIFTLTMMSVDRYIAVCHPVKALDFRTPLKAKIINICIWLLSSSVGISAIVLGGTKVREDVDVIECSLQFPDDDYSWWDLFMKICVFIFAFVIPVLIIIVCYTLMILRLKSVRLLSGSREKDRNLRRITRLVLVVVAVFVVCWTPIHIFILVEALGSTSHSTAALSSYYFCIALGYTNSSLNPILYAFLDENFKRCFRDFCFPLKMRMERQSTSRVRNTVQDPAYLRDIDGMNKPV
Sequence of 5-hydroxytryptamine receptor 2B (P41595 whole entry): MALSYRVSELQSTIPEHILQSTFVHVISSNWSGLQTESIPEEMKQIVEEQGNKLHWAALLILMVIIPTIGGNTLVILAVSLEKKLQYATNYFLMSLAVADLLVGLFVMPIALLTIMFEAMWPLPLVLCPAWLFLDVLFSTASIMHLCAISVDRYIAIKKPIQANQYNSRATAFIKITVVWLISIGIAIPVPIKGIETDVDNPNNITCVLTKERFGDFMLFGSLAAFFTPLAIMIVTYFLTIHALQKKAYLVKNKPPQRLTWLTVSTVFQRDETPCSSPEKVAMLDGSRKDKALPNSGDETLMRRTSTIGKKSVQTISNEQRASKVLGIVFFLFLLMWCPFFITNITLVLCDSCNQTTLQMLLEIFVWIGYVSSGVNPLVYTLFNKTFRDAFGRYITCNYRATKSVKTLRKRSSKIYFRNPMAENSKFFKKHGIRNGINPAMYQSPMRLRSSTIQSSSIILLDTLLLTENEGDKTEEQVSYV
Sequence of 3',5'-cyclic-AMP phosphodiesterase 4D (Q08499 whole entry): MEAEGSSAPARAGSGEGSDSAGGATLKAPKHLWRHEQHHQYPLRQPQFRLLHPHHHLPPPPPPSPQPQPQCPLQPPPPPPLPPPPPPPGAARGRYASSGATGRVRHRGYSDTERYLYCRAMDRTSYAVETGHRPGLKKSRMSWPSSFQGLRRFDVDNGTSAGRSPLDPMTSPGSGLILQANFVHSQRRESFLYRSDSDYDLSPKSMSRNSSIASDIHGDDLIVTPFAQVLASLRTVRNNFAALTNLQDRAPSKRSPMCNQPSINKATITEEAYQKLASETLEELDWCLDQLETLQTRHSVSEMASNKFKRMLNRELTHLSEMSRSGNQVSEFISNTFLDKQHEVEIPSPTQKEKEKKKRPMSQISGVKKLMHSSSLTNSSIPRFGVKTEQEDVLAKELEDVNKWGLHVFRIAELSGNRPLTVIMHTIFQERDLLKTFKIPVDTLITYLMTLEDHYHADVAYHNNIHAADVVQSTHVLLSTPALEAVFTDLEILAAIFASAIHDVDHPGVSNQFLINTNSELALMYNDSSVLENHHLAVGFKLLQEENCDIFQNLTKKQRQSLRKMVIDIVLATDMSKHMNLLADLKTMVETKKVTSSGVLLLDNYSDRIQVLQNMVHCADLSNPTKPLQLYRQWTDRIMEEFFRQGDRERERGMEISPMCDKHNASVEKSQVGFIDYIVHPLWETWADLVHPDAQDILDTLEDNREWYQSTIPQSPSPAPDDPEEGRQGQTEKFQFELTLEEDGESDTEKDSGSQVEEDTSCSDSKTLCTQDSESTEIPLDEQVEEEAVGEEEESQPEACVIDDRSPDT
Sequence of 5-hydroxytryptamine receptor 2A (P28223 whole entry): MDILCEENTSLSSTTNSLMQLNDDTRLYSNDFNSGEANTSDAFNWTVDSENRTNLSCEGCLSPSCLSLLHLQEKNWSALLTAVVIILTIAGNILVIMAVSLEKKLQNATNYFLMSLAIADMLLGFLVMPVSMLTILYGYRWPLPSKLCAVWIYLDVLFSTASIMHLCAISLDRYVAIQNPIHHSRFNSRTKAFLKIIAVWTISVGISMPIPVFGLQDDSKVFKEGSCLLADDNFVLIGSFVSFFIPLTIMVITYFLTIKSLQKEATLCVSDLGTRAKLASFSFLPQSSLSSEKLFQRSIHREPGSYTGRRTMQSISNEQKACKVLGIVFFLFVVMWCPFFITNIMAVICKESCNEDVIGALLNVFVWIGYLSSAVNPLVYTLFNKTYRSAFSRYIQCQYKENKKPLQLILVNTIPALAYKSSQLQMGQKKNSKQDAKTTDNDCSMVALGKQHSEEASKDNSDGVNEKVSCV
Sequence of Melanocortin receptor 3 (P41968 whole entry): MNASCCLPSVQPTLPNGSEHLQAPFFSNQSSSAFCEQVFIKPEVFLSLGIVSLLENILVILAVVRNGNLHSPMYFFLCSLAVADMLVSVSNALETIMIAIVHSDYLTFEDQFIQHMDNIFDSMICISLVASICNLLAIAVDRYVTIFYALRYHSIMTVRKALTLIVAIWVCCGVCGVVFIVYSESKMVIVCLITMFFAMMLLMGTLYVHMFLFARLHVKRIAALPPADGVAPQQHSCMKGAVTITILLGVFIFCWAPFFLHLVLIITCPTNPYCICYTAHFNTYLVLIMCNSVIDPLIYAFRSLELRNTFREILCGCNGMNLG

Compound | AC50 [1] | AC50 [2] | AC50 [3] | AC50 [4] | AC50 [5] | AC50 [6] | AC50 [7] | AC50 [8] | AC50 [9] | AC50 [10]
C[C@@H](Cc1ccccc1)N(C)Cc1ccccc1 [BENZPHETAMINE] | > 10 µM | > 10 µM | > 10 µM | > 10 µM | > 10 µM | > 10 µM | > 30 µM | > 30 µM | 1.97 µM | > 10 µM
O=C(O)c1nn(Cc2ccc(Cl)cc2Cl)c2ccccc12 [LONIDAMINE] | > 30 µM | > 30 µM | > 30 µM | > 30 µM | > 30 µM | > 30 µM | > 30 µM | > 30 µM | > 30 µM | > 30 µM
CC(C(=O)O)c1ccc(C(=O)c2ccccc2)s1 (stereo not given) [TIAPROFENIC ACID] | > 30 µM | > 10 µM | 0.365 µM | > 10 µM | > 10 µM | > 10 µM | > 30 µM | > 30 µM | > 10 µM | > 10 µM
COc1cc(N)cn[n+]1-c1ccccc1 [AMEZINIUM METILSULFATE] | > 30 µM | > 30 µM | > 30 µM | > 30 µM | > 30 µM | > 30 µM | > 30 µM | > 30 µM | > 30 µM | > 30 µM
Cc1ccc(S(=O)(=O)NC(=O)N[C@H]2[C@H]3CC[C@@](C)([C@H]2O)C3(C)C)cc1 [GLIBORNURIDE] | > 30 µM | > 30 µM | > 30 µM | > 30 µM | > 30 µM | > 30 µM | > 30 µM | > 30 µM | > 30 µM | > 30 µM
COC(=O)[C@H]1[C@H]2C[C@@H]3c4[nH]c5ccccc5c4CCN3C[C@H]2C[C@@H](OC(=O)c2cc(OC)c(OC)c(OC)c2)[C@@H]1OC [DESERPIDINE] | > 10 µM | > 10 µM | 34.3 µM | > 10 µM | > 30 µM | > 10 µM | > 30 µM | > 30 µM | 13.7 µM | > 30 µM
CCCCCCOC(=O)NC(=N)c1ccc(NCc2nc3cc(C(=O)N(CCC(=O)OCC)c4ccccn4)ccc3n2C)cc1 [DABIGATRAN ETEXILATE] | > 30 µM | > 30 µM | > 30 µM | > 30 µM | > 30 µM | > 30 µM | > 30 µM | > 30 µM | > 30 µM | > 30 µM
CCC(=O)O[C@H](CC(=O)O)C[N+](C)(C)C [LEVOCARNITINE PROPIONATE] | > 30 µM | > 30 µM | > 30 µM | > 30 µM | > 30 µM | > 30 µM | > 30 µM | > 30 µM | > 30 µM | > 30 µM
CCCCCCCC(=O)CC[C@@H]1[C@@H](C/C=C\CCCC(=O)O)[C@@H](O)C[C@H]1O [UNOPROSTONE] | > 30 µM | > 30 µM | > 30 µM | > 30 µM | > 30 µM | > 30 µM | > 30 µM | > 30 µM | > 30 µM | > 30 µM
CN(C)CCOC(=O)C(c1ccccc1)C1(O)CCCC1 (stereo not given) [CYCLOPENTOLATE] | > 10 µM | 0.29 µM | > 10 µM | > 10 µM | > 10 µM | > 10 µM | > 30 µM | > 30 µM | > 10 µM | > 10 µM
C[C@H](N)C(=O)N[C@@H](CCC(N)=O)C(=O)O [ALANYL GLUTAMINE] (H-Ala-Gln-OH) | > 30 µM | > 30 µM | > 30 µM | > 30 µM | > 30 µM | > 30 µM | > 30 µM | > 30 µM | > 30 µM | > 30 µM
NS(=O)(=O)c1ccc(N2CCCCS2(=O)=O)cc1 | > 30 µM | > 30 µM | > 30 µM | > 30 µM | > 30 µM | > 30 µM | > 30 µM | > 30 µM | 21 µM | > 30 µM
CCOC(=O)O[C@]1(C(=O)COC(=O)CC)CC[C@H]2[C@@H]3CCC4=CC(=O)C=C[C@]4(C)[C@H]3[C@@H](O)C[C@@]21C [PREDNICARBATE] | > 10 µM | > 10 µM | > 10 µM | > 10 µM | > 10 µM | > 10 µM | > 30 µM | > 30 µM | > 10 µM | > 10 µM
CC1NCCOC1c1ccccc1 (stereo not given) [PHENMETRAZINE] | > 30 µM | > 10 µM | > 30 µM | 23 µM | > 30 µM | > 10 µM | > 30 µM | > 30 µM | > 10 µM | > 30 µM
CC(=O)OCC1=C(C(=O)O)N2C(=O)[C@@H](NC(=O)Cc3cccs3)[C@H]2SC1 [CEPHALOTHIN] | > 30 µM | > 30 µM | > 30 µM | > 30 µM | > 30 µM | > 30 µM | > 30 µM | > 30 µM | > 30 µM | > 30 µM
COc1ccc(C(Cl)=C(c2ccc(OC)cc2)c2ccc(OC)cc2)cc1 [CHLOROTRIANISENE] | > 30 µM | > 30 µM | 0.259 µM | > 30 µM | > 30 µM | > 30 µM | > 30 µM | > 30 µM | > 30 µM | > 30 µM
CC(=O)OCC1=C(C(=O)O)N2C(=O)[C@@H](NC(=O)CSc3ccncc3)[C@H]2SC1 [CEPHAPIRIN] | > 10 µM | > 10 µM | > 10 µM | > 10 µM | > 10 µM | > 10 µM | > 30 µM | > 30 µM | > 10 µM | > 10 µM
